Source: patent publication US20200172927A1, “REP[…] […] FOR TREATMENT OF NEURODEGENERATION” (The Trustees of Columbia University in the City of New York, priority 2017, published 2020)

Test system: HIF2a and GLUT1
Experiment: Immunoblot of retinas from B6 mice orally fed VH298 for 3 days
Assay type: in vivo
Settings: 6-week old B6 mice, oral, VH298 in oil 10, 20, or 50 mg/kg, retinas collected 4 hours after last feeding, vs oil only control
Protocol: 6-week old B6 mice were orally fed for 3 days with VH298 in oil (10, 20, or 50 mg/kg) or oil only for the control group. Each group contained 3 mice. 4 hours after the last feeding, mice retinas were collected and processed immediately for immunoblot. Protein levels of HIF2a, and Glut1 were shown. B-actin was used as loading control.
6-week old B6 mice were orally fed for 3 days with VH298 in oil (10, 20, or 50 mg/kg) or oil only for the control group. Each group contained 3 mice. 4 hours after the last feeding, mice retinas were collected and processed immediately for immunoblot.

Cc1ncsc1-c1ccc(CNC(=O)[C@@H]2C[C@@H](O)CN2C(=O)[C@@H](NC(=O)C2(C#N)CC2)C(C)(C)C)cc1 [VH298, (2S,4R)-1-((S)-2-(1-cyanocyclopropanecarboxamido)-3,3-dimethylbutanoyl)-4-hydroxy-N-(4-(4-methylthiazol-5-yl)benzyl)pyrrolidine-2-carboxamide]
Protein level of GLUT1 in retina (immunoblot): dose-dependent increase
Protein level of HIF2a in retina (immunoblot): dose-dependent increase
